Measurements as given in patent US7417038B1, “Methods of treating cachexia” (Imperial Innovations Limited, priority 1998, dated 2008).
Where a name gives a salt, the structure may show the parent alone.

What was measured:
[1] = target: T1, human cloned ETA receptors (Homo sapiens, UniProt P25101); details: cited from earlier work
T1 sequence (P25101 21-427): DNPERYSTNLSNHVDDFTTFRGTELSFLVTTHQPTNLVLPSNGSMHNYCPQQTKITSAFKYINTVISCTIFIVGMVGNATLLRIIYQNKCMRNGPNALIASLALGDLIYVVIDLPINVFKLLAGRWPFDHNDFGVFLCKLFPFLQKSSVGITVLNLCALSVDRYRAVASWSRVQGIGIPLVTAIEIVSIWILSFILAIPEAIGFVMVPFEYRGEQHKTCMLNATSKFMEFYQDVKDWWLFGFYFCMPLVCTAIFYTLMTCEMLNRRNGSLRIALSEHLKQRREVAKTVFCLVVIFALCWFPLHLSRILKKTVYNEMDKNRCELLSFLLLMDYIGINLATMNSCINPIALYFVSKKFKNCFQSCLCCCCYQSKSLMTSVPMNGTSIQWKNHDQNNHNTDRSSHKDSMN

[2] = Spironolactone treatment of a cachectic CHF patient: body weight and clinical status; details: one cachectic CHF patient, spironolactone 25 mg once daily
[3] = Spironolactone treatment of a cachectic CHF patient: symptom limited treadmill exercise testing; assay type: in vivo, human; details: one cachectic CHF patient, spironolactone 25 mg once daily, follow-up vs baseline
Protocol: The patient had good compliance in taking spironolactone.
Treadmill exercise testing: The patient underwent symptom limited treadmill exercise testing. A standard Bruce protocol was used. The patient breathed through a one-way valve connected to a commercially available respiratory gas analyser (MedGraphics Inc., USA) and minute ventilation and oxygen consumption were recorded on line every 15 seconds. The patient was encouraged to exercise to exhaustion. Exercise time and oxygen consumption at peak exercise adjusted for total body weight (peak VO2 in ml/kg/min) was measured as an index of the exercise capacity. One day prior to the intended baseline exercise test an additional exercise test was performed to familarise the patient with the test procedure.

[4] = target: T2, ETA receptor (Homo sapiens, UniProt P25101); details: cited from earlier work; for selectivity for the ETA receptor versus the ETB receptor: ETA vs ETB
T2 sequence (P25101 21-427): T1 sequence (P25101 21-427)

[5] = Treatment of a hypertensive patient with Atenolol (with co-medication): body weight; assay type: in vivo, human; details: baseline 85.6 kg, Atenolol 50 mgs OD with Losartan, Bendrofluazide, Doxazosin, 11 months
Protocol: A hypertensive patient presented weighing 85.6 kg. They were treated with Losartan 50 mgs OD, Bendrofluazide 2-5 mgs OD, Doxazosin 1 mg OD and Atenolol, a β-blocker, 50 mgs OD. In 11 months their weight increased to 94.3 kg.

[6] = Carvedilol treatment of a cachectic CHF patient: body weight, body composition (bioelectrical impedance), clinical status; assay type: in vivo, human; details: one cachectic CHF patient
[7] = Carvedilol treatment of a cachectic CHF patient: symptom limited treadmill exercise testing; assay type: in vivo, human; details: one cachectic CHF patient, Carvedilol 3.125 mg to 12.5 mg twice daily, follow-up vs baseline
[8] = without development of any oedema
[9] = Carvedilol, without development of oedema

For `Cc1ccc(-c2c(NS(=O)(=O)c3ccc(C(C)(C)CO)cc3)ncnc2OCCOc2ncc(Br)cn2)cc1` [T-0201, N-(6-(2-(5-bromopyrimidin-4-yl)-4-(2-hydroxy-1,1-dimethylethyl)-benzensulfonamidesodium salt sesquihydrate], the “effect on specific binding of [125I]-ET-1” value [1] is given as “competitively antagonized the specific binding”.

In the case of `CC(=O)S[C@@H]1CC2=CC(=O)CC[C@]2(C)[C@H]2CC[C@@]3(C)[C@@H](CC[C@@]34CCC(=O)O4)[C@H]12` [spironolactone], the “New York Heart Association functional class (NYHA class) change” value [2] is reported as “class III symptoms to class II symptoms”, the “side effects of the treatment” value [2] is reported as “no side effects” and the body weight increase [2, 8] is reported as 1.5 kg. The “body weight increase (percent)” value [2, 8] was 2%, the exercise time increase [3] was 53% and the “peak VO2 increase” value [3] was 79%.

For `CCCCN(CCCC)C(=O)CN1C[C@H](c2cc(OC)c3c(c2)OCO3)[C@@H](C(=O)O)[C@@H]1CC(C)(C)CCC` [A-216546], the “selectivity for the ETA receptor versus the ETB receptor” value [4] is given as > 25,000 fold.

For `COc1ccccc1Oc1c(NS(=O)(=O)c2ccc(C)cn2)nc(-c2ccnc(-c3nnn[nH]3)c2)nc1OCCO` [Ro 61-1790, 5-methyl-pyridine-2-sulfonic acid 6-(2-hydroxy-ethoxy)-5-(2-methoxy-phenoxy)-2-(2-1H-tetrazol-5-yl-+++pyridin-4-yl)-pyrimidin-4-ylamide], the “selectivity for the ETA receptor versus the ETB receptor” value [4] is listed as “approximately 1000 fold” and the “affinity to ETA receptor” value ([4]; competitive ET antagonist) is listed as “subnanomolar range”.

For `CC(C)NCC(O)COc1ccc(CC(N)=O)cc1` (centres unmarked) [Atenolol], the “body weight after treatment” value [5] was 94.3 kg.

For `COc1ccccc1OCCNCC(O)COc1cccc2[nH]c3ccccc3c12` (centres unmarked) [Carvedilol], the “tolerability of the treatment” value ([6]; Carvedilol 3.125 mg to 12.5 mg twice daily) was “tolerated the treatment well”, the “increase in lean muscle tissue” value ([6]; Carvedilol 3.125 mg to 12.5 mg twice daily, bioelectrical impedance) was 1.8 kg and the body weight increase [6, 9] was 2.1 kg. For the same molecule, the “body weight increase (percent)” value [6, 9] was 3.1%, the VE/VCO2-slope decrease [7] was 15.5% and the “peak VO2 increase” value [7] was 15%.
